The source of these data is patent US12312599B2, “Methods, compositions, and kits for producing beige adipocytes and treating metabolic disorders” (MaineHealth, priority 2018, dated 2025).

For the experiment, the system named is FD-MSCs. The experiment in a line: BODIPY lipid stain of FD-MSCs during adipogenic differentiation. The class given is cell-based, human. On the procedure: All assays were performed between 7 and 15 passages. For osteocyte differentiation, mature MSCs were grown in 24 well culture plates to 100% confluency in MesenCult-ACF and induced to differentiate in OsteoLife Complete Osteogenesis Medium (Lifeline Cell Technology) for 21 days prior to staining with Lifeline Alizarin Red Stain to visualize calcium deposition. For chondrocyte differentiation. For beige adipogenic precursor generation, cells were grown in 24 well culture plates to 90% confluence and treated with 5 uM SB413542 (Sigma) and 10 nM human IL-4 (Peprotech) for 2 days. For beige adipogenic induction, adipogenic precursors are differentiated for 3 days with adipogenic medium consisting of T3 (2 nM), insulin (170 nM), rosiglitazone (1 μM), SB413542 (5 uM), IBMX (0.5 mM), dexamethasone (5 μM) and indomethacin (125 μM) in EGM-2 medium (Lonza) supplemented with the BulletKit minus FGF2 (modified from^33). Thereafter, cells are maintained in adipogenic medium without IBMX, dexamethasone and indomethacin. The medium was changed every 3 days and adipocytes were fully differentiated by 9-12 days as determined by lipid accumulation and peak expression of UCP1. Cell Isolation, Expansion and Differentiation of Interscapular Brown Adipose Tissue Preadipocytes • 1. Prior to adipose cell isolation, warm DMEM, FBS and cell wash buffer to room temperature. • 2. In a laminar flow cabinet for cell culture, place 5 g of adipose tissue on a 100×20 mm dish. Suspend tissue in 1 mL of Adipose Tissue Dissociation Kit enzyme digest cocktail and finely mince with a razorblade. • 3. […] Incubate tube at 37° C. on a rotating nutator for 30 minutes. During incubation period, briefly vortex sample for 5 s in 10-minute intervals. • 5. Transfer cells to a 15 mL tube and add 5 mL of DMEM. Filter cell suspension through a 100 μm strainer into a new 15 mL tube and centrifuge at 300 g for 5 minutes to form a pellet. • 6. Remove supernatant and leave behind […] of DMEM. Resuspend cell pellet in 10 mL of DMEM containing 10% FBS and plate in a 100×20 mm dish for expansion. Agitate plate to spread cells evenly on well surface and incubate plate at 37° C. in a 5% CO2 incubator undisturbed. Change 100% of medium every day. • 7. Upon 80% confluence, split and passage cells at a ratio of 1:6. • 8. Prepare for passage by warming cell wash buffer and cell culture medium (DMEM containing 10% FBS) to room temperature. Warm TrypLE dissociation reagent to 37° C. • 9. Aspirate cell culture medium from wells and wash once with PBS. Remove PBS and add 500 μL of pre-warmed TrypLE reagent to each well of a 6 well plate. Scale TrypLE amount for larger tissue culture plates accordingly. • 10. Incubate culture plate at 37° C. for 5 minutes. […]

The mark [1] stands for this setting: SB throughout the adipogenic differentiation period, day 12.

Turning to `NC(=O)c1ccc(-c2nc(-c3ccc4c(c3)OCO4)c(-c3ccccn3)[nH]2)cc1` [SB, SB431542], under “SB for 2 days before and throughout the 12-day adipogenic differentiation”, the lipid accumulation entry was “greatest amount of lipid accumulation”. For the same compound, where the note is “SB prior to and during differentiation, versus SB during differentiation alone”, the “additional increase in lipid droplet staining” value turned out to be 45%. Under setting [1], the “cells in culture with lipid content” value is reported as “approximately 50%” and the “increase in lipid content” value is reported as 5 fold.
